{
  "source": "paper PMC10322960",
  "about": "(European Journal of Drug Metabolism and Pharmacokinetics, 2023)",
  "key": {"CYP3A4": {"biological_target": "CYP3A4 (Homo sapiens, UniProt P08684)", "sequence (P08684 whole entry)": "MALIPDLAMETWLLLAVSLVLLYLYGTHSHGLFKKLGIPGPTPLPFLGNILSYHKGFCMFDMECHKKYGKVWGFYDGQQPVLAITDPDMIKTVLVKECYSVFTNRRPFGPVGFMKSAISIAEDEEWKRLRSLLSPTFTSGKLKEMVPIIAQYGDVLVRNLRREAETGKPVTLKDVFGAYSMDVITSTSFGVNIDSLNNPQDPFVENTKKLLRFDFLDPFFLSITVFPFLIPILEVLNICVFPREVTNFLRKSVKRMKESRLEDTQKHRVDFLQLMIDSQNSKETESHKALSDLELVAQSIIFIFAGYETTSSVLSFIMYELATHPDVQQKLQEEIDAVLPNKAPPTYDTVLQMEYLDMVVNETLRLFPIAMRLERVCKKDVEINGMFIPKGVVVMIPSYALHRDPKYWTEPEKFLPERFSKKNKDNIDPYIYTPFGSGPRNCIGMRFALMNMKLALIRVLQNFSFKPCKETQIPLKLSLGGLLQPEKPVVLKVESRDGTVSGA", "format": "in vitro ADME", "conditions": "3 µm ocedurenone, NADPH, 60 min"}, "[1]": {"test_system": "CYP1A2, CYP2A6, CYP2B6, CYP2C8, CYP2C9, CYP2C19, CYP2D6, CYP2E1, and CYP4A11", "experiment": "Recombinant CYP incubation", "format": "in vitro ADME, human", "conditions": "3 µm ocedurenone, NADPH, 60 min"}, "CYP1A2": {"biological_target": "T1, CYP1A2 (Homo sapiens, UniProt P05177)", "T1 sequence (P05177 1-516)": "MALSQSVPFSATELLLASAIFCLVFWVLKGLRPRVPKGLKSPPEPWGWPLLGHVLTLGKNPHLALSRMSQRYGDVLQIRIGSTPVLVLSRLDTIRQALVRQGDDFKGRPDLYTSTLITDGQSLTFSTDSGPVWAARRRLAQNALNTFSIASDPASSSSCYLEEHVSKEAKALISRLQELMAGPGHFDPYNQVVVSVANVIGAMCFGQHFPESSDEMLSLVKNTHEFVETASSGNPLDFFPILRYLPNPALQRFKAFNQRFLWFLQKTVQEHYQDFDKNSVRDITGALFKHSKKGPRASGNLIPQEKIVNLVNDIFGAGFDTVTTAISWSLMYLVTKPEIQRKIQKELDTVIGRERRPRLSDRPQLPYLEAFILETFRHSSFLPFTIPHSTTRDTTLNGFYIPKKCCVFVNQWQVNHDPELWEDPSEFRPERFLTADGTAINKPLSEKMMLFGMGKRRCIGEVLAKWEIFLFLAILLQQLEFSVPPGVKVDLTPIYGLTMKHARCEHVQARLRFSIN", "format": "in vitro ADME"}, "BSEP": {"biological_target": "BSEP (Homo sapiens, UniProt O95342)", "sequence (O95342 whole entry)": "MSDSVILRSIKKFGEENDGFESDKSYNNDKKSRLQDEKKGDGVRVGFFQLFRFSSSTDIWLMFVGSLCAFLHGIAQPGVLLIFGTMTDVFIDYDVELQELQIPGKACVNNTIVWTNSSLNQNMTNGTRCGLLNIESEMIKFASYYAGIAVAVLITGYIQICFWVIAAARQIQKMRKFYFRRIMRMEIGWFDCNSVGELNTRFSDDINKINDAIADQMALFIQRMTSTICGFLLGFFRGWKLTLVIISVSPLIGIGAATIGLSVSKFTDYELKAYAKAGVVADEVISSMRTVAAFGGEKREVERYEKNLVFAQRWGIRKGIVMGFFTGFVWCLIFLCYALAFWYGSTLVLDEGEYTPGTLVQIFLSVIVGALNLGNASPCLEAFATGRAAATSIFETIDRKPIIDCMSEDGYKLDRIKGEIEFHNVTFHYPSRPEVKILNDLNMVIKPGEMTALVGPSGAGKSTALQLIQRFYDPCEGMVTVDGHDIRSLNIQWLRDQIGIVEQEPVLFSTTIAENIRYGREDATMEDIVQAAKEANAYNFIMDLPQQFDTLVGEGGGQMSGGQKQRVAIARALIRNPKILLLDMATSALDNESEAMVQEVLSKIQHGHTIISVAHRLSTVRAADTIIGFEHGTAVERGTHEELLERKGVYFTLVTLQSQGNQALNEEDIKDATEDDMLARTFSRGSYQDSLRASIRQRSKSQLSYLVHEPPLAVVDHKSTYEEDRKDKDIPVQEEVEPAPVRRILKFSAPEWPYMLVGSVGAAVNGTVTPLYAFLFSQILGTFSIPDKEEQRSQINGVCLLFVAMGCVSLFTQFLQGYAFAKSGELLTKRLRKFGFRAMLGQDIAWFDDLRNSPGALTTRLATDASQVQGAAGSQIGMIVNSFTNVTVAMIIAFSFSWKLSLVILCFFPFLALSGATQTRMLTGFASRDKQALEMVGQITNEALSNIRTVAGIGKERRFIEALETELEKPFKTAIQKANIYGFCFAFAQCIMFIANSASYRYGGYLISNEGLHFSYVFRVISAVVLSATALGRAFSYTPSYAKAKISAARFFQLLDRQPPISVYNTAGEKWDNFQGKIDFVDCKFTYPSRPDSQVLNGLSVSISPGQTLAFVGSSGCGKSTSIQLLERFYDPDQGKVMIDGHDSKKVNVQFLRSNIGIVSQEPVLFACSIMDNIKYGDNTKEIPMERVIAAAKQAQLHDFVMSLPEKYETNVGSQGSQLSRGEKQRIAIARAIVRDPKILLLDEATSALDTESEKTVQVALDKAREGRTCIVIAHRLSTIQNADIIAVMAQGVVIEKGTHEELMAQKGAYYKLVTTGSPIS", "experiment": "BSEP vesicular transport inhibition assay", "format": "in vitro ADME"}, "OCT2": {"biological_target": "T2, OCT2 (Homo sapiens, UniProt O15244)", "T2 sequence (O15244 1-555)": "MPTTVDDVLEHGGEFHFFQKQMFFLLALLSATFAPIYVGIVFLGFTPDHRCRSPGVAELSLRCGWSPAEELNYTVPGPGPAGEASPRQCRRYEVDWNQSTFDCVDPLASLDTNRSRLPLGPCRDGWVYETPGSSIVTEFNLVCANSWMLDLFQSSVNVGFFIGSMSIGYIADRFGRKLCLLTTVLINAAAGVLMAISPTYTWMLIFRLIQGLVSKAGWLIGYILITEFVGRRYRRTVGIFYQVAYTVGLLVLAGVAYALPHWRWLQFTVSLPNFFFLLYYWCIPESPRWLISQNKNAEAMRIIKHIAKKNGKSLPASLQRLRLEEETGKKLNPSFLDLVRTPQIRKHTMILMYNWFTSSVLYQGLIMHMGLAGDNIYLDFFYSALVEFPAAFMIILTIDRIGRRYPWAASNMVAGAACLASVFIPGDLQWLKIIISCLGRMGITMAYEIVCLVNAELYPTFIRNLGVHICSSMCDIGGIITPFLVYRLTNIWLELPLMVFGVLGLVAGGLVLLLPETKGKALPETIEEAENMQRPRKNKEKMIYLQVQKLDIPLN", "experiment": "OCT2 uptake inhibition assay", "format": "in vitro ADME", "conditions": "0.63–40 μM"}, "BCRP": {"biological_target": "T3, BCRP (Homo sapiens, UniProt Q9UNQ0)", "T3 sequence (Q9UNQ0 1-655)": "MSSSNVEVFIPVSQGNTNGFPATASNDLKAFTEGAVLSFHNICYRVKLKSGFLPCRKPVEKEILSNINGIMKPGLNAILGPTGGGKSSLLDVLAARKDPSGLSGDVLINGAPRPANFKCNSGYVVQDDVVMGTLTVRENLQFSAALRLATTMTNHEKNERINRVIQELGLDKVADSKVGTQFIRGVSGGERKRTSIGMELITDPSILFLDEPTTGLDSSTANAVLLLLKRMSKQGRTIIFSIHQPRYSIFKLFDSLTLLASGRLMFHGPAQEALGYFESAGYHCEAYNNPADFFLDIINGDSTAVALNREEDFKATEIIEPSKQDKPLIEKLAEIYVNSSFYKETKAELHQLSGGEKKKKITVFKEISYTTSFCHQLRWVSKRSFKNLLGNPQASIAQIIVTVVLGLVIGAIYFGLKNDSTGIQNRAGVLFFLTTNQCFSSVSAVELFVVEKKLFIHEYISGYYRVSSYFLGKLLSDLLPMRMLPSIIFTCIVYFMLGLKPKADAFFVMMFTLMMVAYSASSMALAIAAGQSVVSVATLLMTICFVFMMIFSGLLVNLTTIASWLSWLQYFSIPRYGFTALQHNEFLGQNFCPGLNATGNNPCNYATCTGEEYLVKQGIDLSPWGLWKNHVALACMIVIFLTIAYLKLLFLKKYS", "experiment": "BCRP monolayer substrate assay", "format": "in vitro ADME"}, "OATP1B3": {"biological_target": "T4, OATP1B3 (Homo sapiens, UniProt Q9NPD5)", "T4 sequence (Q9NPD5 1-702)": "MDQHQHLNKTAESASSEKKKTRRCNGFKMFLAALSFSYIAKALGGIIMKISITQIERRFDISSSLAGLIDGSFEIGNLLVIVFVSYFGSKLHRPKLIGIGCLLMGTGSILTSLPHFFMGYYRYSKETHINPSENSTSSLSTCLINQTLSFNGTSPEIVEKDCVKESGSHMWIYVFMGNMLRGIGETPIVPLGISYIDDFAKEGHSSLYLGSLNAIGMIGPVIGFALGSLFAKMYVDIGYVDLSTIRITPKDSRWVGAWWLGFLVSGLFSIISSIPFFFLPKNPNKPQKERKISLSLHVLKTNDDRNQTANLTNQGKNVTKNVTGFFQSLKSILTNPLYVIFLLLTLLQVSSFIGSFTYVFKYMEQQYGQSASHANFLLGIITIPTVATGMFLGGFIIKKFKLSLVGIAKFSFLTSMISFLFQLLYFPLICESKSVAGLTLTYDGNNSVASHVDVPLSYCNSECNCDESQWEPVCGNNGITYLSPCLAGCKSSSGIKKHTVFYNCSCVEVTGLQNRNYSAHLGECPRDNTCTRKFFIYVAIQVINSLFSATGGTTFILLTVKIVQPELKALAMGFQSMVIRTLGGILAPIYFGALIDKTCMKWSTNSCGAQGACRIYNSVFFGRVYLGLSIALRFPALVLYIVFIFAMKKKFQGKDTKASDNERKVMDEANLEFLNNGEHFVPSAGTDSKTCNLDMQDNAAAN", "experiment": "OATP1B3 uptake substrate assay", "format": "in vitro ADME"}, "OCT1": {"biological_target": "OCT1 (Homo sapiens, UniProt O15245)", "sequence (O15245 whole entry)": "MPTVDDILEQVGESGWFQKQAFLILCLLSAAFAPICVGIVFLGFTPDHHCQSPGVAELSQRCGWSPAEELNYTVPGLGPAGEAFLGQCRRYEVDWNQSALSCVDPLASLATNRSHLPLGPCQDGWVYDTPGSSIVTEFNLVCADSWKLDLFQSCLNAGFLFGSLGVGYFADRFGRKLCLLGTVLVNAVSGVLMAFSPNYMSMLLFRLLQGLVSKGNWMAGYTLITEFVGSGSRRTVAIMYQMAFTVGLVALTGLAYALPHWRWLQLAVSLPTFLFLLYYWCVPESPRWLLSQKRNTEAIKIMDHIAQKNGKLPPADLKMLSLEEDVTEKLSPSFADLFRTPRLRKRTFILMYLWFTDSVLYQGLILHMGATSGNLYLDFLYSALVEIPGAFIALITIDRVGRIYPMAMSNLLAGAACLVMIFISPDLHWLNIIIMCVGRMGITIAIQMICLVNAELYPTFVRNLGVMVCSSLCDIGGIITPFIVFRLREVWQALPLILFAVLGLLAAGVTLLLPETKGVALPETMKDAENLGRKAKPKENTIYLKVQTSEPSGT", "experiment": "OCT1 uptake substrate assay", "format": "in vitro ADME"}, "[2]": {"conditions": "following 0.5-mg dose at steady state; not from this study, ref not given; cited from earlier work"}, "[3]": {"conditions": "transporter-expressing vs control cells, 0.04–40 µm"}},
  "data": [
    {"smiles": "N#Cc1ccc(N2N=C3c4ccc(C(=O)N5CCC(O)CC5)nc4CC[C@@H]3[C@@H]2C2CCCC2)cc1Cl", "note": "[Ocedurenone, ocedurenone]", "values": [
      {"measurement": "metabolism in recombinant CYP3A4 incubation", "setting": "CYP3A4", "result": "Most extensive metabolism"},
      {"measurement": "metabolism in incubations with other recombinant CYP isoenzymes", "setting": "[1]", "result": "minor metabolism"},
      {"measurement": "percent remaining activity of CYP1A2", "setting": "CYP1A2; ocedurenone at 200 μM", "result": 92.9, "unit": "%"},
      {"measurement": "IC50", "setting": "CYP1A2; read-out: IC50 CYP1A2, recombinant CYP", "result": "> 200", "unit": "µM"},
      {"measurement": "inhibition category CYP1A2", "setting": "CYP1A2; recombinant enzyme", "result": "little or no inhibition"},
      {"measurement": "inhibition of BSEP at 40 µM", "setting": "BSEP; first vesicular transport run, 40 µM", "result": 79, "unit": "%"},
      {"measurement": "maximum inhibition of BSEP-mediated transport", "setting": "BSEP; repeat with 7 concentrations", "result": 71, "unit": "%"},
      {"measurement": "interaction with human OCT2 transporter (inhibition)", "setting": "OCT2", "result": "No interaction"},
      {"measurement": "Substrate, BCRP ML", "setting": "BCRP", "result": "likely a substrate"},
      {"measurement": "Substrate, OATP1B3 UPT", "setting": "OATP1B3", "result": "not likely to be a substrate"},
      {"measurement": "Maximum fold accumulation, OATP1B3 UPT", "setting": "OATP1B3; [3]", "result": 1.1},
      {"measurement": "Substrate, OCT1 UPT", "setting": "OCT1", "result": "not likely to be a substrate"},
      {"measurement": "Maximum fold accumulation, OCT1 UPT", "setting": "OCT1; [3]", "result": 1.1},
      {"measurement": "plasma Cmax at steady state", "setting": "[2]", "result": "32 to 40", "unit": "ng/mL"}
    ]}
  ]
}
